# In PubChem BioAssay (NCI):
#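 Five compound concentrations were applied to cells in 96-well plates for 48 hours; endpoints were derived by simple linear interpolation of the resulting dose-response curve. The concentration for 50% growth inhibition is given as GI50. Definition used: TGI = concentration required for complete inhibition of growth.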
# What was measured:
# Test in all cases: NCI anticancer screen, dose series, 48 h
# MDA-MB-231 breast = tested on: MDA-MB-231 breast
# SK-MEL-28 melanoma = tested on: SK-MEL-28 melanoma
# CCRF-CEM leukemia = tested on: CCRF-CEM leukemia
# M14 melanoma = tested on: M14 melanoma
# RPMI-8226 leukemia = tested on: RPMI-8226 leukemia
# LOX IMVI melanoma = tested on: LOX IMVI melanoma
# TK-10 renal = tested on: TK-10 renal
# SF-539 CNS = tested on: SF-539 CNS
# SF-268 CNS = tested on: SF-268 CNS
# SR leukemia = tested on: SR leukemia
Structure (SMILES),GI50 (MDA-MB-231 breast) [µM],TGI (MDA-MB-231 breast) [µM],GI50 (SK-MEL-28 melanoma) [µM],TGI (SK-MEL-28 melanoma) [µM],GI50 (CCRF-CEM leukemia) [µM],TGI (CCRF-CEM leukemia) [µM],GI50 (M14 melanoma) [µM],TGI (M14 melanoma) [µM],GI50 (RPMI-8226 leukemia) [µM],TGI (RPMI-8226 leukemia) [µM],GI50 (LOX IMVI melanoma) [µM],TGI (LOX IMVI melanoma) [µM],GI50 (TK-10 renal) [µM],TGI (TK-10 renal) [µM],GI50 (SF-539 CNS) [µM],TGI (SF-539 CNS) [µM],GI50 (SF-268 CNS) [µM],TGI (SF-268 CNS) [µM],GI50 (SR leukemia) [µM],TGI (SR leukemia) [µM]
O=C1c2cccnc2-c2nc(-c3ccc(Cl)cc3)cc3c2c1nc1ccccc13,44.1,> 100,34.7,> 100,> 100,> 100,19.9,58,56.5,> 100,35.7,> 100,24.6,> 100,59.8,> 100,71.2,> 100,7.38,> 100
c1ccc(Sc2ccc(Cc3nc4cc5ccccc5cc4[nH]3)cc2)cc1,3.31,29.9,37.7,> 100,1.42,> 59,21,> 74.5,3.77,49.7,1.42,29.1,0.456,18,1.34,19.5,8.48,> 100,26,> 100
CN1CCc2nc(N)nc(-c3nc(N)nc4c3CN(C)CC4)c2C1,,> 100,,> 100,,,,> 100,,> 100,,> 100,,> 100,,> 100,,> 100,,> 100
Cc1cc(C(=O)Nc2ccc3cc(CN4CCOCC4)ccc3n2)c(C)n1-c1ccccc1,8.09,51.8,2.91,8.91,1.86,> 93.7,1.81,5.71,0.822,3.73,1.99,15.2,4.75,58.5,4.84,27.7,3.35,35.7,2.6,> 74.8
COc1cc2ncnc(-n3ncc4cc(NC(=O)Nc5ccccc5)ccc43)c2cc1OC,1.39,4.92,1.38,4.33,2.56,13.6,1.1,4.22,0.934,12,0.722,2.75,0.724,2.56,0.23,17.3,1.55,11.2,2.03,15.3
CC(C)c1c(O)c(O)c2c(c1O)C(=O)C(O)=C1C(C)(C)CCC[C@@]12C,,7.29,,17.7,,7.43,,19.3,,3.99,,13.8,,15.1,,14.8,,20,,6.59
Cc1ccc(NC(=O)c2cccc(C(C)(C)C#N)c2)cc1Nc1ccc2ncn(C)c(=O)c2c1,< 0.0239,> 29,0.0192,,5.36,> 100,0.019,,3.25,> 100,0.0585,> 67.5,2.9,> 100,3.32,> 100,6.01,> 100,4.79,> 100
CC/C=C\C[C@H](O)C/C=C1/C(=O)C=C[C@@H]1C/C=C\CCCC(=O)OC,2.94,9.23,1.81,4.37,0.368,11.4,1.32,4.72,1,9.21,0.237,0.609,3.29,9.13,2.75,7.33,2.56,11.8,0.403,6.18
COC(=O)Nc1nc2ccc(C3(c4ccc(F)cc4)OCCO3)cc2[nH]1,0.598,99.5,0.769,> 100,0.337,> 100,,,0.427,> 100,0.732,> 100,15.7,> 100,0.196,0.52,2.07,> 100,0.122,> 100
C=C(C)[C@@H]1CC[C@]2(CO)CC[C@]3(C)[C@H](CC[C@@H]4[C@@]5(C)C=C(C#N)C(=O)C(C)(C)[C@@H]5CC[C@]43C)[C@@H]12,1.56,4.82,,,2.11,8.7,1.55,3.78,0.809,3.86,1.18,2.68,2.09,6.06,2.61,8.34,1.46,4.78,1.53,6.01
CCNCCNc1cc(-c2ccc(C(F)(F)F)cc2)c(C#N)c2nc3ccccc3n12,1.16,2.52,1.54,3.05,0.266,0.683,1.66,3.16,1.36,3.61,0.185,0.382,2.14,3.76,,,1.48,3.04,0.343,1.19
Cc1cc2ncnn2cc1Nc1ncc2c(n1)n(C1CCOCC1)c(=O)n2C,5.3,> 100,5.71,64.1,4.04,> 100,11.2,> 100,4.41,> 100,5.92,> 100,,,9.63,51.5,6.18,> 100,3.42,52.9
COc1ccc(C(=O)c2cc(OC)c(OC)c(OC)c2)cc1/C=C/C(=O)c1ccc(F)cc1,4.72,84.5,2.48,7.25,2.24,9.69,3.39,18,2.32,6.98,,,4.43,30.9,1.98,4.3,3.86,16.1,2.04,95.7
COc1c(C(=O)/C=C/c2ccccc2)c(O)cc2occc12,4.38,17.5,7.03,20.7,,,8.89,25.7,3.15,9.42,1.69,3.31,11.2,24.8,3.22,13.5,4.05,13.7,3.27,22.2
